Where two headings read alike, the source gives them in different places.
Columns and labels:
Format in all cases: binding
[1] = molecular target: T1, HeLa cell extract proteins (Homo sapiens, UniProt P06733)
T1 construct: endogenous in cells; host or cells: HeLa cell extract

[2] = molecular target: T2, HeLa cell extract proteins (Homo sapiens, UniProt P56192)
T2 construct: endogenous in cells; host or cells: HeLa cell extract
T2 sequence (P56192 1-900): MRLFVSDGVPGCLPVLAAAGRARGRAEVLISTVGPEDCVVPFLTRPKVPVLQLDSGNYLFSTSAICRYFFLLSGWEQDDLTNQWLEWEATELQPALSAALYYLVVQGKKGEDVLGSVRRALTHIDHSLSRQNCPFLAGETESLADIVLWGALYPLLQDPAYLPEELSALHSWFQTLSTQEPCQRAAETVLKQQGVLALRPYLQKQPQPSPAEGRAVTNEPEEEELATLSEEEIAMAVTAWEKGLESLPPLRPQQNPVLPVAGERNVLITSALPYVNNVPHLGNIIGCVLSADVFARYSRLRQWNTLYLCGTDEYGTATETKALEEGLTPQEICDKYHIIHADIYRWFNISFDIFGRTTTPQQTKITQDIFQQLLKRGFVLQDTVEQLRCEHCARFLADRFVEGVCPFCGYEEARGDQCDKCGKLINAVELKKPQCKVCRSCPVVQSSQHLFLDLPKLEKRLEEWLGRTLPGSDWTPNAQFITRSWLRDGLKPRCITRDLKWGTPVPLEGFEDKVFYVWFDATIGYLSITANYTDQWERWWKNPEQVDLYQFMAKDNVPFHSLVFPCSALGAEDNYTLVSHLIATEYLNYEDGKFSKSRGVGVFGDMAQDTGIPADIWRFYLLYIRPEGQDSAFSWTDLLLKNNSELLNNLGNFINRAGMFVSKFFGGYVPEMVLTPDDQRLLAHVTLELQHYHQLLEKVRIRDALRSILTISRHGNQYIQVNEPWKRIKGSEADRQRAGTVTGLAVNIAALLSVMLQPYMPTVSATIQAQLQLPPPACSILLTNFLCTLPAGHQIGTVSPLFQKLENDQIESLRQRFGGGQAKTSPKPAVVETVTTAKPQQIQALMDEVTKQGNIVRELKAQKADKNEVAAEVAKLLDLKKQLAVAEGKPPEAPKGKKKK

[3] = molecular target: T3, HeLa cell extract proteins (Homo sapiens, UniProt Q6P2E9)
T3 construct: endogenous in cells; host or cells: HeLa cell extract
T3 sequence (Q6P2E9 1-1401): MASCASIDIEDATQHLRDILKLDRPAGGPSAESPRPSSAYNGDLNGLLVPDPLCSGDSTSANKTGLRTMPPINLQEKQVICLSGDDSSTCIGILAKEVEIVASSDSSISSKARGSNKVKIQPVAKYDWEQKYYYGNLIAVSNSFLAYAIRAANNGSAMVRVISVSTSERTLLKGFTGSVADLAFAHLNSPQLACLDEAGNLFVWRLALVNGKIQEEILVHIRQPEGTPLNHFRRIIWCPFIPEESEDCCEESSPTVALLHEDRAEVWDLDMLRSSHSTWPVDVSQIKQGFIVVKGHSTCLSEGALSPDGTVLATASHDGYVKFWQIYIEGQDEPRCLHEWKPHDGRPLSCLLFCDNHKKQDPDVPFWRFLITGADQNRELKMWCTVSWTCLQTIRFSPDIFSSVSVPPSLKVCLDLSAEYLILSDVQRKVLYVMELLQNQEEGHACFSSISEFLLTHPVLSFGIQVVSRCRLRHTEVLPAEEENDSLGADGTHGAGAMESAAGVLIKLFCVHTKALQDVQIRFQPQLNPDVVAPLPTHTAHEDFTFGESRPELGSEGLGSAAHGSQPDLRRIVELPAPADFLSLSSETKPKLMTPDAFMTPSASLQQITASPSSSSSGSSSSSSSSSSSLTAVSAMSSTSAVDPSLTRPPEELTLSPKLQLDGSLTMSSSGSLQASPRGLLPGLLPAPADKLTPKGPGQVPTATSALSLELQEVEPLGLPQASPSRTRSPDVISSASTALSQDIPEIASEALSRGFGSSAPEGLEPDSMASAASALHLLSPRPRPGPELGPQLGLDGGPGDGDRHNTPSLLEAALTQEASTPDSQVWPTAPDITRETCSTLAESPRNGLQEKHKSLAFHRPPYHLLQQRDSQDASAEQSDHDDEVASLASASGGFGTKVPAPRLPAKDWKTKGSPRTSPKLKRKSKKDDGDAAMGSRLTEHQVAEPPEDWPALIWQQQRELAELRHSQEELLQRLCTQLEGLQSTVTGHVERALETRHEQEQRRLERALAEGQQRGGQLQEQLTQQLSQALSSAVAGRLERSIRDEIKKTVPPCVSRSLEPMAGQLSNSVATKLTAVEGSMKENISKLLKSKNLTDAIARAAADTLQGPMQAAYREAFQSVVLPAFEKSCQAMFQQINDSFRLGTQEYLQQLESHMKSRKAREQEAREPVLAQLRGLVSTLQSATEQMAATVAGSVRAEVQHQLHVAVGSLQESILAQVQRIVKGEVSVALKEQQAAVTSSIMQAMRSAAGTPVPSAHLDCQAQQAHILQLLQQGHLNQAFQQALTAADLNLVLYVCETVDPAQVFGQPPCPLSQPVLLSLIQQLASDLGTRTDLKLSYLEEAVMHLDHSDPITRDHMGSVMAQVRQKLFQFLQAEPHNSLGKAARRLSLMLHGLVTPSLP

[4] = molecular target: T4, HeLa cell extract proteins (Homo sapiens, UniProt P00505)
T4 construct: endogenous in cells; host or cells: HeLa cell extract
T4 sequence (P00505 30-430): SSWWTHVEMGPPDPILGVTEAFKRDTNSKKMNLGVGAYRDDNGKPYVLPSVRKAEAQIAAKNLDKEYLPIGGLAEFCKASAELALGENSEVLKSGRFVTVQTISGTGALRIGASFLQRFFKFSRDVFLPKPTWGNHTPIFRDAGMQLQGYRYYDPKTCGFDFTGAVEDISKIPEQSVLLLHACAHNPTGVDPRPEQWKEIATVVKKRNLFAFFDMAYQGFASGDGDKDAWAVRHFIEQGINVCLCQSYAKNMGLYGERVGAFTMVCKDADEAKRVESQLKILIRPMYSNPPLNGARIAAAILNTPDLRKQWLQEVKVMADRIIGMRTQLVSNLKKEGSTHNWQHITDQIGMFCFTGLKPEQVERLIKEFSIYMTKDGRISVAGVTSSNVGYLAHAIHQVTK

[5] = HeLa, protein ENO1 (ISOFORM ALPHA-ENOLASE OF ALPHA-ENOLASE.)

T1 sequence (P06733 whole entry): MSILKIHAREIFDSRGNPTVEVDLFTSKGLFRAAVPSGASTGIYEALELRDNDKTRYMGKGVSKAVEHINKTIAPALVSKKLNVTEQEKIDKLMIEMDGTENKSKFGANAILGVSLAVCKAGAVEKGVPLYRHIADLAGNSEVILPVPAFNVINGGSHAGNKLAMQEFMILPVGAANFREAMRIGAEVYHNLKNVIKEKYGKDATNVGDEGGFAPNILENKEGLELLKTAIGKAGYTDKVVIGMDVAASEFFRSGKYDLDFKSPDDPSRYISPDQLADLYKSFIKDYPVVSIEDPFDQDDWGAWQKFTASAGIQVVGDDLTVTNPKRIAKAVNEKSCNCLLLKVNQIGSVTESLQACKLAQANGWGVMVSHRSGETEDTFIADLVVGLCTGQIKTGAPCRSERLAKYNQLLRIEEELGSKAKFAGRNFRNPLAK

| SMILES | fold changes relative to vehicle control [1, 5] [fold] | fold changes relative to vehicle control ([2]; captured protein MARS, HeLa) | fold changes relative to vehicle control ([3]; HeLa, protein EDC4) | fold changes relative to vehicle control ([4]; protein GOT2, HeLa) | fold changes relative to vehicle control ([1]; HeLa, protein ENO1) | fold changes relative to vehicle control ([2]; HeLa, captured protein MARS) | fold changes relative to vehicle control ([4]; HeLa, protein GOT2) | fold changes relative to vehicle control [1] | fold changes relative to vehicle control [2] | fold changes relative to vehicle control [3] | fold changes relative to vehicle control [4] |
| --- | --- | --- | --- | --- | --- | --- | --- | --- | --- | --- | --- |
| CCCCCCOc1cccc(Cc2cnc(N)nc2N)c1 [compound 2] | 2.6 | 1.07 | 1.12 | 2.22 |  |  |  |  |  |  |  |
| NCCOCCOCC(=O)Nc1nc2ncc(CNc3ccc(C(=O)NC(CCC(=O)O)C(=O)O)cc3)nc2c(=O)[nH]1 (stereo not shown) [compound 6] |  |  | 1.03 |  | 1.26 | 1.01 | 1.16 |  |  |  |  |
| CCCCCCOc1ccc(Cc2cnc(N)nc2N)cc1 [compound 1] | 1.47 | 0.74 | 0.87 | 1.12 |  |  |  |  |  |  |  |
| Nc1nc2c(c(=O)[nH]1)N(C=O)C(CNc1ccc(C(=O)N[C@@H](CCC(=O)O)C(=O)O)cc1)CN2 (stereo partly shown) [LEU, leucovorin] |  |  | 1.03 |  | 1.07 | 0.92 | 0.94 |  |  |  |  |
| NCCCNc1ccc(C(=O)NC(CCC(=O)O)C(=O)O)cc1 (stereo not shown) [compound 7] |  |  | 0.97 |  | 0.9 | 0.94 | 0.94 |  |  |  |  |
| Nc1nc2[nH]cc(CCc3ccc(C(=O)N[C@@H](CCC(=O)O)C(=O)O)cc3)c2c(=O)[nH]1 [PTX, pemetrexed] |  |  |  |  |  |  |  | 1.14 | 0.93 | 1.02 | 0.99 |
| Nc1nc2cccc(-c3ccccc3)c2n1Cc1ccc(Cl)c(Cl)c1 [compound 3] | 0.84 | 0.93 | 0.98 | 0.84 |  |  |  |  |  |  |  |

Source: publication PMC6199744, “Development of Chemical Proteomics for the Folateome and Analysis of the Kinetoplastid Folateome” (ACS Infectious Diseases, 2018)
